In US8183254B2, “Inhibitors of JNK” (Roche Palo Alto LLC, priority 2008, dated 2012):

Tests used:
[1] = target: Human JNK1α1 (Homo sapiens, UniProt P45983); experiment: JNK assay in vitro (phosphorylation of GST-ATF2 with [γ-33P] ATP), JNK1; type: biochemical; details: Km concentrations of ATP and substrate
Experimental: (§1) JNK activity was measured by phosphorylation of GST-ATF2 (19-96) with [γ-^33P] ATP. […] Human JNK2α2 assay contains 1 nM enzyme, 1 μM ATF2, 8 μM ATP with 1 uCi [γ-^33P] ATP. Human JNK1α1 assay contains 2 nM enzyme, 1 μM ATF2, 6 μM ATP with 1 μCi [γ-^33P] ATP. Human JNK3 Upstate Biotech #14-501M) assay contains 2 nM enzyme, 1 μM ATF2, 4 μM ATP with 1 μCi [γ-^33P] ATP. The enzyme assay was carried out in the presence or absence of several compound concentrations. JNK and compound were pre-incubated for 10 min., followed by initiation of the enzymatic reaction by adding ATP and the substrate. The reaction mixture was incubated at 30° C. for 30 min. At the end of incubation, the reaction was terminated by transferring 25 μl of the reaction mixture to 150 μl of 10% glutathione Sepharose® slurry (Amersham # 27-4574-01) containing 135 mM EDTA. The reaction product was captured on the affinity resin, and washed on a filtration plate (Millipore, MABVNOB50) with phosphate buffered saline for six times to remove free radionucleotide. The incorporation of ^33P into ATF2 was quantified on a microplate scintillation counter (Packard Topcount). Compound inhibition potency on JNK was measured by IC50 value generated from ten concentration inhibition curves fitted into the 3-parameter model: % inhibition=Maximum/(1+(IC50/[Inhibitor])^slope). Data were analyzed on Microsoft Excel for parameter estimation.

[2] = target: Human JNK2α2 (Homo sapiens, UniProt P45984); experiment: JNK assay in vitro (phosphorylation of GST-ATF2 with [γ-33P] ATP), JNK2; type: biochemical; details: Km concentrations of ATP and substrate
Experimental: as §1

[3] = test system: TNFα-induced IL-6 production; experiment: Rat in vivo TNFα-induced IL-6 production assay; details: oral gavage 30 min prior to TNF-α challenge, plasma IL-6 90 min after challenge, female Wistar-Han rats
Experimental: Female Wistar-Han rats procured from Charles River Laboratories were allowed to acclimate for one week prior to use and achieve an approximate body weight of 101-130 g. Rats were administered test compound (N=8 per compound) via oral gavage 30 min prior to an intraperitoneal challenge of 0.5 μg recombinant rat TNF-α (Biosource). Blood was collected via cardiocentesis 90 min after TNF-α challenge. Plasma was prepared using lithium heparin separation tubes (BD microtainer) and frozen at −80° C. until analyzed. IL-6 levels were determined using a rat specific IL-6 ELISA kit (Biosource). The percent inhibition and ED50 values (calculated as the dose of compound at which […] is 50% of the control value) were determined.

Human JNK2α2, sequence (P45984 whole entry): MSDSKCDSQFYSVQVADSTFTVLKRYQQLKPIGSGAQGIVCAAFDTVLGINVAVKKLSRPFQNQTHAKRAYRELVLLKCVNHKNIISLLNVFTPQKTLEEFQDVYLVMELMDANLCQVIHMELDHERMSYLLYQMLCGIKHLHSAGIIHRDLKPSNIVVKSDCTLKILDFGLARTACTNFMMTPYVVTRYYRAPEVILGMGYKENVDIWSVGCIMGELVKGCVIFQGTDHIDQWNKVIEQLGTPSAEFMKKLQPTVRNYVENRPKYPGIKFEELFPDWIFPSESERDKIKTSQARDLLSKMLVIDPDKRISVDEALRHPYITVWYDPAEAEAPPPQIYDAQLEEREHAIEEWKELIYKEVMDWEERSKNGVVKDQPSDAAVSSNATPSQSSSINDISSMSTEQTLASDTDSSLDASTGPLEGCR
Human JNK1α1, sequence (P45983 1-384 isoform P45983-2): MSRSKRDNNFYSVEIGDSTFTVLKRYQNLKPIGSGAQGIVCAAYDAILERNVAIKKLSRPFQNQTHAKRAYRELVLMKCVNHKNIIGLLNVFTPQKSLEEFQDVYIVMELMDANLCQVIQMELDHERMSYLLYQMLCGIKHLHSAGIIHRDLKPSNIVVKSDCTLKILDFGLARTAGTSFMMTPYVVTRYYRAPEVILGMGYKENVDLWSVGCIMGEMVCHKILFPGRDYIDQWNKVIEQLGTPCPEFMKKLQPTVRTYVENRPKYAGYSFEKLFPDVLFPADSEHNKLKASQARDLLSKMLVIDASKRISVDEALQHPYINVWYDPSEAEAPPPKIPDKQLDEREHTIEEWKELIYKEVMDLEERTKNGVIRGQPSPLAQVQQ

SMILES	IC50 [1] [nM]	IC50 [2] [nM]	melting point [°C]	IL-6 Inhibition ([3]; dose 10 mg/Kg) [%]	IL-6 Inhibition ([3]; dose 30 mg/Kg) [%]
CN[C@H](C(=O)OC1CCN(C(=O)[C@H]2CC[C@H](Nc3nccc(-n4ccc5c(OCCCS(C)(=O)=O)cccc54)n3)CC2)CC1)C(C)C (stereo in doubt) [Compound I-15, (R)-3-Methyl-2-methylamino-butyric acid 1-(4-{4-[4-(3-methanesulfonyl-propoxy)-indol-1-yl]-pyrimidin-2-ylamino}-cyclohexanecarbonyl)-piperidin-4-yl ester]	10	40.5	105 to 107		
CC[C@H](C)[C@H](N)C(=O)OC1CCN(C(=O)[C@H]2CC[C@H](Nc3nccc(-n4ccc5c(OCCCS(C)(=O)=O)cccc54)n3)CC2)CC1 [Compound I-4, (2S,3S)-2-Amino-3-methyl-pentanoic acid 1-(4-{4-[4-(3-methanesulfonyl-propoxy)-indol-1-yl]-pyrimidin-2-ylamino}-cyclohexanecarbonyl)-piperidin-4-yl ester]	11.6	51.9	137 to 138		
CC(C)[C@H](N)C(=O)OC1CCN(C(=O)[C@H]2CC[C@H](Nc3nccc(-n4ccc5c(OCCCS(C)(=O)=O)cccc54)n3)CC2)CC1 [Compound I-6, (S)-2-Amino-3-methyl-butyric acid 1-(4-{4-[4-(3-methanesulfonyl-propoxy)-indol-1-yl]-pyrimidin-2-ylamino}-cyclohexanecarbonyl)-piperidin-4-yl ester]	10.5	40.2	163 to 164		
CN(C)CC(=O)OC1CCN(C(=O)[C@H]2CC[C@H](Nc3nccc(-n4ccc5c(OCCCS(C)(=O)=O)cccc54)n3)CC2)CC1 [Compound I-8, Dimethylamino-acid acid 1-(4-{4-[4-(3-methanesulfonyl-propoxy)-indol-1-yl]-pyrimidin-2-ylamino}-cyclohexanecarbonyl)-piperidin-4-yl ester]	23.8	67.6	177 to 178	28.9	40.2
CN[C@@H](C)C(=O)OC1CCN(C(=O)[C@H]2CC[C@H](Nc3nccc(-n4ccc5c(OCCCS(C)(=O)=O)cccc54)n3)CC2)CC1 [Compound I-9, (S)-2-methylamino-propionic acid 1-(4-{4-[4-(3-methanesulfonyl-propoxy)-indol-1-yl]-pyrimidin-2-ylamino}-cyclohexanecarbonyl)-piperidin-4-yl ester]	15.3	50.9	182 to 183	28.1	49.1
CC[C@H](C)[C@@H](N)C(=O)OC1CCN(C(=O)[C@H]2CC[C@H](Nc3nccc(-n4ccc5c(OCCCS(C)(=O)=O)cccc54)n3)CC2)CC1 [Compound I-10, (2R,3S)-2-Amino-3-methyl-pentanoic acid 1-(4-{4-[4-(3-methanesulfonyl-propoxy)-indol-1-yl]-pyrimidin-2-ylamino}-cyclohexanecarbonyl)-piperidin-4-yl ester]			150 to 200		
CC[C@@H](C)[C@@H](N)C(=O)OC1CCN(C(=O)[C@H]2CC[C@H](Nc3nccc(-n4ccc5c(OCCCS(C)(=O)=O)cccc54)n3)CC2)CC1 [Compound I-11, (2R,3R)-2-Amino-3-methyl-pentanoic acid 1-(4-{4-[4-(3-methanesulfonyl-propoxy)-indol-1-yl]-pyrimidin-2-ylamino}-cyclohexanecarbonyl)-piperidin-4-yl ester]	34.7	115	147 to 148		
COP(=O)(OC)OC1CCN(C(=O)[C@H]2CC[C@H](Nc3nccc(-n4ccc5c(OCCCS(C)(=O)=O)cccc54)n3)CC2)CC1 [Compound I-12, Phosphoric acid 1-(4-{4-[4-(3-methanesulfonyl-propoxy)-indol-1-yl]-pyrimidin-2-ylamino}-cyclohexanecarbonyl)-piperidin-4-yl ester dimethyl ester]	48.1	162	135 to 136		
CS(=O)(=O)CCCOc1cccc2c1ccn2-c1ccnc(N[C@H]2CC[C@H](C(=O)N3CCC(OC(=O)CCC(=O)O)CC3)CC2)n1 [Compound I-14]	27.9	67.9	214.2 to 217.7		

Further lines, with some results ahead:

IC50 [1] [nM]	IC50 [2] [nM]	melting point [°C]	SMILES	IL-6 Inhibition ([3]; dose 10 mg/Kg) [%]	IL-6 Inhibition ([3]; dose 30 mg/Kg) [%]
9.4	40.8	202.2 to 203.2	C[C@H](N)C(=O)OC1CCN(C(=O)[C@H]2CC[C@H](Nc3nccc(-n4ccc5c(OCCCS(C)(=O)=O)cccc54)n3)CC2)CC1 [Compound I-1]		
6.8	34.7	219 to 220	CC(C)(N)C(=O)OC1CCN(C(=O)[C@H]2CC[C@H](Nc3nccc(-n4ccc5c(OCCCS(C)(=O)=O)cccc54)n3)CC2)CC1 [Compound I-2, 2-Amino-2-methyl-propionic acid 1-(4-{4-[4-(3-methanesulfonyl-propoxy)-indol-1-yl]-pyrimidin-2-ylamino}-cyclohexanecarbonyl)-piperidin-4-yl ester]		
7.4	27.4	147 to 148	CS(=O)(=O)CCCOc1cccc2c1ccn2-c1ccnc(N[C@H]2CC[C@H](C(=O)N3CCC(OC(=O)[C@@H]4CCCN4)CC3)CC2)n1 [Compound I-5, (S)-Pyrrolidine-2-carboxylic acid 1-(4-{4-[4-(3-methanesulfonyl-propoxy)-indol-1-yl]-pyrimidin-2-ylamino}-cyclohexanecarbonyl)-piperidin-4-yl ester]		
15	55	127 to 128	CN1CCC[C@@H]1C(=O)OC1CCN(C(=O)[C@H]2CC[C@H](Nc3nccc(-n4ccc5c(OCCCS(C)(=O)=O)cccc54)n3)CC2)CC1 [Compound I-7, (R)-1-Methyl-pyrrolidine-2-carboxylic acid 1-(4-{4-[4-(3-methanesulfonyl-propoxy)-indol-1-yl]-pyrimidin-2-ylamino}-cyclohexanecarbonyl)-piperidin-4-yl ester]		
10.8	56.8	201.3 to 208.8	CS(=O)(=O)CCCOc1cccc2c1ccn2-c1ccnc(N[C@H]2CC[C@H](C(=O)N3CCC(OP(=O)(O)O)CC3)CC2)n1 [Compound I-13]		
17.6	57.2	127 to 128	CN1CCC[C@H]1C(=O)OC1CCN(C(=O)[C@H]2CC[C@H](Nc3nccc(-n4ccc5c(OCCCS(C)(=O)=O)cccc54)n3)CC2)CC1 [Compound I-27, (S)-1-Methyl-pyrrolidine-2-carboxylic acid 1-(4-{4-[4-(3-methanesulfonyl-propoxy)-indol-1-yl]-pyrimidin-2-ylamino}-cyclohexanecarbonyl)-piperidin-4-yl ester]	35.8	50.7
